Test results reported in article PMC2785468, “Androgen Receptor Mutations Associated with Androgen Insensitivity Syndrome: A High Content Analysis Approach Leading to Personalized Medicine” (PLoS ONE, 2009).
Changes are numbered by the printed parent chain.

Tests used:
Type in all cases: cell-based
AR-P766S = target: T1, AR-P766S (Homo sapiens, UniProt P10275, P767S); conditions: doses of 200 nM, compared with wt AR at 0.2 nM
T1 construct: segments AR 624-919 (wild type or containing mutations F764L, R840C, and P766S); expressed in transfected cells; host or cells: HeLa, transient co-transfection
T1 sequence (P10275 624-919 P767S): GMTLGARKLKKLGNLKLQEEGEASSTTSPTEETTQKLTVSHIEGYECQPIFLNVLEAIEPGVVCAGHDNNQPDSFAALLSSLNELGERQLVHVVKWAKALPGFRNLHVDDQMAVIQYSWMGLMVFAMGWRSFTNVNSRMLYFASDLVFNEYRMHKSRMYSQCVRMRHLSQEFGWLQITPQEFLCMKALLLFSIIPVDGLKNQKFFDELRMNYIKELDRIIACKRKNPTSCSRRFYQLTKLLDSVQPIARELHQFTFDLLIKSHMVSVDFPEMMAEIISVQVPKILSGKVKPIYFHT
T1 sequence (P10275 1-660 partner limits assumed): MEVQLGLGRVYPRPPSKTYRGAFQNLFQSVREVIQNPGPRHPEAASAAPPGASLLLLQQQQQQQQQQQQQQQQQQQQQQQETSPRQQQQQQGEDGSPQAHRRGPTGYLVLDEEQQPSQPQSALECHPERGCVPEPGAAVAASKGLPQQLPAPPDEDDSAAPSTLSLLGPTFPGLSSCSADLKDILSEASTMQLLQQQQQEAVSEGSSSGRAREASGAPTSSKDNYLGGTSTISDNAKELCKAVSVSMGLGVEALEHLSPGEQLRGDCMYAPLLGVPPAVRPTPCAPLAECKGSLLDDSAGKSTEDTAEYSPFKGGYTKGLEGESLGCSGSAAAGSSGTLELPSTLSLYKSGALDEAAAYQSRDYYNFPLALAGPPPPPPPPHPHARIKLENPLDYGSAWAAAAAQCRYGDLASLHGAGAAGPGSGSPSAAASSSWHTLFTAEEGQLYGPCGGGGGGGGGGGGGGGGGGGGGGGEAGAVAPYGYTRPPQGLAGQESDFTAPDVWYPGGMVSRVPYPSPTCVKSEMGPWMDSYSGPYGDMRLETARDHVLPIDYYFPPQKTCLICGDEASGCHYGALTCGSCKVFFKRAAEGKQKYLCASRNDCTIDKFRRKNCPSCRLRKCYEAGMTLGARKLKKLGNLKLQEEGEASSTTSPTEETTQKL
Procedure: (§1) An interaction between COOH terminal AF2 (activation function 2) and NH2 terminal sequence F^23XXLF^27 is an important step toward the activation of AR [30]. The NC-TDI was measured using the reagents of the CheckMate™/Flexi® Vector Mammalian Two-Hybrid System, Promega (Madison, WI). […] One day before transfection, 1.5×10^6 Hela cells were seeded into a 60 mm dish. […] After 12 hours of transfection, cells were trypsinized and equally seeded into nine wells of a 12 well plate, with one well treated with vehicle and others with various concentration of different ligand. After 24 h of treatment, luciferase activity was assayed with the Promega Dual Glo assay kit, using a luminometer (PerkinElmer). Data represent the average±SD of three independent experiments, are expressed as fold-induction compared with negative control, and represent the units of firefly luciferase corrected for the units of renilla luciferase detected in the same plate.
as §1, with “Figure 3 NH2-COOH-terminal domain” for “An”, “(NC-TDI) assay.” for “between COOH terminal AF2 (activation function 2) and NH2 terminal sequence F^23XXLF^27 is an important step toward the activation of AR [30]. The NC-TDI was measured using the reagents of the CheckMate™/Flexi® Vector Mammalian Two-Hybrid System, Promega (Madison, WI).”, “HeLa” for “Hela”, “c/w” for “compared with”

AR-F764L = target: T2, AR-F764L (Homo sapiens, UniProt P10275, F765L)
T2 construct: segments AR 624-919 (wild type or containing mutations F764L, R840C, and P766S); expressed in transfected cells; host or cells: HeLa, transient co-transfection
T2 sequence (P10275 624-919 F765L): T1 sequence (P10275 624-919 P767S) with F142L, S144P
T2 sequence (P10275 1-660 partner limits assumed): T1 sequence (P10275 1-660 partner limits assumed)
Procedure: as §1
as §1, with “Figure 3 NH2-COOH-terminal domain” for “An”, “(NC-TDI) assay.” for “between COOH terminal AF2 (activation function 2) and NH2 terminal sequence F^23XXLF^27 is an important step toward the activation of AR [30]. The NC-TDI was measured using the reagents of the CheckMate™/Flexi® Vector Mammalian Two-Hybrid System, Promega (Madison, WI).”, “HeLa” for “Hela”, “c/w” for “compared with”

wild type AR = target: T3, wild type AR (Homo sapiens, UniProt P10275); conditions: ligands at 0.2–200 nM, 24 h
T3 construct: segments AR 624-919 (wild type or containing mutations F764L, R840C, and P766S); expressed in transfected cells; host or cells: HeLa, transient co-transfection
T3 sequence (P10275 624-919): T1 sequence (P10275 624-919 P767S) with S144P
T3 sequence (P10275 1-660 partner limits assumed): T1 sequence (P10275 1-660 partner limits assumed)
Procedure: as §1
as §1, with “Figure 3 NH2-COOH-terminal domain” for “An”, “(NC-TDI) assay.” for “between COOH terminal AF2 (activation function 2) and NH2 terminal sequence F^23XXLF^27 is an important step toward the activation of AR [30]. The NC-TDI was measured using the reagents of the CheckMate™/Flexi® Vector Mammalian Two-Hybrid System, Promega (Madison, WI).”, “HeLa” for “Hela”, “c/w” for “compared with”

AR-R840C = target: T4, AR-R840C (Homo sapiens, UniProt P10275, R841C)
T4 construct: segments AR 624-919 (wild type or containing mutations F764L, R840C, and P766S); expressed in transfected cells; host or cells: HeLa, transient co-transfection
T4 sequence (P10275 624-919 R841C): T1 sequence (P10275 624-919 P767S) with S144P, R218C
T4 sequence (P10275 1-660 partner limits assumed): T1 sequence (P10275 1-660 partner limits assumed)
Procedure: as §1
as §1, with “Figure 3 NH2-COOH-terminal domain” for “An”, “(NC-TDI) assay.” for “between COOH terminal AF2 (activation function 2) and NH2 terminal sequence F^23XXLF^27 is an important step toward the activation of AR [30]. The NC-TDI was measured using the reagents of the CheckMate™/Flexi® Vector Mammalian Two-Hybrid System, Promega (Madison, WI).”, “HeLa” for “Hela”, “c/w” for “compared with”

C[C@@H]1CC2=CC(=O)CC[C@@H]2[C@H]2CC[C@@]3(C)[C@@H](CC[C@]3(C)O)[C@@H]21 [Mb, Mibolerone]
NC-TDI rescue (in words) (AR-P766S): rescue the NC-TDI response to the levels observed with wt AR
NC-TDI, % of wild type receptor (AR-F764L; at 0.2 nM): 10%
NC-TDI response (AR-F764L; at 200 nM): 3.1 fold
NC-TDI maximal response (luciferase activity) (wild type AR): 7.1 fold increase
concentration at which the NC-TDI response saturated (AR-R840C): 2 nM
